Results: ChEMBL document CHEMBL1201862, “PubChem BioAssay data set” (2004)
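Five concentrations, 48 hours, 96-well plates. GI50 = concentration required for 50% inhibition of growth.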 Active and inactive are the calls of the source. No stated cut-off is given here; in the data, active = GI50 up to about 1.1 µM and inactive = higher.

What was measured:
Assay in all cases: growth of human tumour cells (NCI), 48 h
PC-3 = system: PC-3
M14 = system: M14
OVCAR-5 = system: OVCAR-5
EKVX = system: EKVX
UACC-257 = system: UACC-257
SR = system: SR
RPMI-8226 = system: RPMI-8226
OVCAR-8 = system: OVCAR-8
SF-295 = system: SF-295
SF-268 = system: SF-268
TK-10 = system: TK-10
SK-MEL-5 = system: SK-MEL-5
NCI-H23 = system: NCI-H23
NCI-H460 = system: NCI-H460
NCI-H226 = system: NCI-H226
CAKI-1 = system: CAKI-1
A549 = system: A549
MCF7 = system: MCF7
OVCAR-4 = system: OVCAR-4
SK-MEL-28 = system: SK-MEL-28

Compound	GI50 (PC-3)	GI50 (M14)	GI50 (OVCAR-5)	GI50 (EKVX)	GI50 (UACC-257)	GI50 (SR)	GI50 (RPMI-8226)	GI50 (OVCAR-8)	GI50 (SF-295)	GI50 (SF-268)	GI50 (TK-10)	GI50 (SK-MEL-5)	GI50 (NCI-H23)	GI50 (NCI-H460)	GI50 (NCI-H226)	GI50 (CAKI-1)	GI50 (A549)	GI50 (MCF7)	GI50 (OVCAR-4)	GI50 (SK-MEL-28)
CCOC(=O)c1c(NC(=O)c2cccs2)sc2c1CCC2	> 100 µM (inactive)	> 100 µM (inactive)	> 100 µM (inactive)	> 100 µM (inactive)	> 100 µM (inactive)	73.3 µM (inactive)	> 100 µM (inactive)	> 100 µM (inactive)	> 100 µM (inactive)	> 100 µM (inactive)	> 100 µM (inactive)	> 100 µM (inactive)	> 100 µM (inactive)	> 100 µM (inactive)	> 100 µM (inactive)	> 100 µM (inactive)	> 100 µM (inactive)	> 100 µM (inactive)	–	–
N=c1oc2ccc([N+](=O)[O-])cc2cc1C(=O)NCc1ccccc1	19.6 µM (inactive)	23.4 µM (inactive)	32.9 µM (inactive)	38.8 µM (inactive)	19.8 µM (inactive)	34.4 µM (inactive)	38.7 µM (inactive)	15.2 µM (inactive)	36.4 µM (inactive)	22.3 µM (inactive)	29.2 µM (inactive)	18.7 µM (inactive)	–	41 µM (inactive)	12.9 µM (inactive)	19.2 µM (inactive)	57.1 µM (inactive)	35.7 µM (inactive)	24.6 µM (inactive)	20.3 µM (inactive)
COc1ccc2[nH]c(S(=O)(=O)N3CC(CCl)c4ccc(N)cc43)cc2c1 (configuration not stated)	0.0973 µM (active)	0.0568 µM (active)	10 µM (inactive)	1.85 µM (inactive)	4.14 µM (inactive)	< 0.01 µM (active)	0.103 µM (active)	0.266 µM (active)	0.0775 µM (active)	0.0685 µM (active)	20.6 µM (inactive)	< 0.0157 µM (active)	–	< 0.0189 µM (active)	0.252 µM (active)	0.0254 µM (active)	0.146 µM (active)	0.0184 µM (active)	2.16 µM (inactive)	13 µM (inactive)
Cc1ccccc1C1=C/C(=C(\SS/C(C(=O)c2ccc(OCC(=O)O)c(Cl)c2Cl)=C2\C=C(c3ccccc3C)SS2)C(=O)c2ccc(OCC(=O)O)c(Cl)c2Cl)SS1	6.92 µM (inactive)	25.5 µM (inactive)	51.1 µM (inactive)	37.8 µM (inactive)	29.4 µM (inactive)	24.1 µM (inactive)	21.5 µM (inactive)	26.3 µM (inactive)	31.3 µM (inactive)	18 µM (inactive)	35.9 µM (inactive)	26.3 µM (inactive)	21.5 µM (inactive)	26.4 µM (inactive)	17.9 µM (inactive)	37.6 µM (inactive)	46.9 µM (inactive)	31.4 µM (inactive)	21.1 µM (inactive)	26.4 µM (inactive)
O=C(O)CC(CC(=O)O)n1cccc1	> 100 µM (inactive)	> 100 µM (inactive)	> 100 µM (inactive)	> 100 µM (inactive)	> 100 µM (inactive)	> 100 µM (inactive)	> 100 µM (inactive)	> 100 µM (inactive)	> 100 µM (inactive)	–	> 100 µM (inactive)	> 100 µM (inactive)	> 100 µM (inactive)	> 100 µM (inactive)	> 100 µM (inactive)	> 100 µM (inactive)	> 100 µM (inactive)	> 100 µM (inactive)	> 100 µM (inactive)	> 100 µM (inactive)
CCN1CCCn2c(=O)[nH]c3cc(Br)cc1c32	> 100 µM (inactive)	> 100 µM (inactive)	> 100 µM (inactive)	0.706 µM (active)	> 100 µM (inactive)	> 100 µM (inactive)	> 100 µM (inactive)	27 µM (inactive)	35.1 µM (inactive)	24 µM (inactive)	51.6 µM (inactive)	> 100 µM (inactive)	> 100 µM (inactive)	> 100 µM (inactive)	55.5 µM (inactive)	> 100 µM (inactive)	> 100 µM (inactive)	> 100 µM (inactive)	> 100 µM (inactive)	> 100 µM (inactive)
CC(=O)OCC12C(OC(C)=O)C[C@@H](C)C3(CC(c4ccoc4)OC3=O)C1CCC(O)C21CO1 (some centres not stated)	> 100 µM (inactive)	> 100 µM (inactive)	> 100 µM (inactive)	–	> 100 µM (inactive)	> 100 µM (inactive)	> 100 µM (inactive)	> 100 µM (inactive)	> 100 µM (inactive)	> 100 µM (inactive)	> 100 µM (inactive)	> 100 µM (inactive)	> 100 µM (inactive)	> 10 µM (inactive)	> 100 µM (inactive)	> 100 µM (inactive)	> 100 µM (inactive)	> 100 µM (inactive)	> 100 µM (inactive)	> 100 µM (inactive)
O=C1CC(=O)NC(NN2C(=O)CSC2c2ccc(Cl)c(Cl)c2)=N1 (configuration not stated)	> 100 µM (inactive)	31.6 µM (inactive)	> 100 µM (inactive)	–	> 100 µM (inactive)	43.8 µM (inactive)	> 100 µM (inactive)	> 100 µM (inactive)	> 100 µM (inactive)	> 100 µM (inactive)	> 100 µM (inactive)	> 100 µM (inactive)	> 100 µM (inactive)	> 100 µM (inactive)	> 100 µM (inactive)	> 100 µM (inactive)	> 100 µM (inactive)	> 100 µM (inactive)	> 100 µM (inactive)	> 100 µM (inactive)
C=CCc1cc(-c2n[nH]c(=S)[nH]2)ccc1N/N=N/c1ccc(C(=O)O)cc1	> 100 µM (inactive)	> 100 µM (inactive)	> 100 µM (inactive)	> 100 µM (inactive)	76.9 µM (inactive)	45.9 µM (inactive)	38.5 µM (inactive)	38.5 µM (inactive)	52.4 µM (inactive)	49.7 µM (inactive)	> 100 µM (inactive)	16.7 µM (inactive)	48.1 µM (inactive)	–	42.4 µM (inactive)	> 100 µM (inactive)	> 100 µM (inactive)	59.4 µM (inactive)	44.7 µM (inactive)	> 100 µM (inactive)
O=C(O)c1ccc(Nc2cnc3cc(C(F)(F)F)ccc3n2)cc1	80.7 µM (inactive)	–	34 µM (inactive)	40.6 µM (inactive)	43.7 µM (inactive)	56.1 µM (inactive)	35.2 µM (inactive)	52.1 µM (inactive)	89.3 µM (inactive)	> 100 µM (inactive)	31.5 µM (inactive)	40.8 µM (inactive)	46.5 µM (inactive)	36.1 µM (inactive)	71.3 µM (inactive)	> 100 µM (inactive)	42 µM (inactive)	38 µM (inactive)	–	42.4 µM (inactive)
CNC1=CC(=O)C2=C(C1=O)[C@H]1CC[C@]3(C)C(=O)CC[C@H]3[C@@H]1CC2	13.1 µM (inactive)	13.5 µM (inactive)	22.7 µM (inactive)	15.3 µM (inactive)	13.2 µM (inactive)	14.1 µM (inactive)	17.3 µM (inactive)	9.71 µM (inactive)	15.3 µM (inactive)	–	62.4 µM (inactive)	8.18 µM (inactive)	5.13 µM (inactive)	18.5 µM (inactive)	12.4 µM (inactive)	13.6 µM (inactive)	19.8 µM (inactive)	20.2 µM (inactive)	9.38 µM (inactive)	18.2 µM (inactive)
CC(=O)OCC(Br)C1(C)CCC(C(C)(C)Br)O1 (configuration not stated)	29.4 µM (inactive)	89.7 µM (inactive)	> 100 µM (inactive)	> 100 µM (inactive)	12.1 µM (inactive)	77.1 µM (inactive)	> 100 µM (inactive)	–	> 100 µM (inactive)	> 100 µM (inactive)	> 100 µM (inactive)	35.9 µM (inactive)	65.5 µM (inactive)	57.9 µM (inactive)	32.8 µM (inactive)	> 100 µM (inactive)	63.8 µM (inactive)	56.4 µM (inactive)	11.2 µM (inactive)	79.6 µM (inactive)
CC(C)CCC[C@@H](C)[C@H]1CC[C@H]2[C@@H]3CC[C@H]4C[C@@H](CCC=C(c5cc(Cl)c(O)c(C(=O)O)c5)c5cc(Cl)c(O)c(C(=O)O)c5)CC[C@]4(C)[C@H]3CC[C@]12C	> 100 µM (inactive)	> 100 µM (inactive)	> 100 µM (inactive)	> 100 µM (inactive)	> 100 µM (inactive)	> 100 µM (inactive)	> 100 µM (inactive)	> 100 µM (inactive)	> 100 µM (inactive)	> 100 µM (inactive)	> 100 µM (inactive)	> 100 µM (inactive)	> 100 µM (inactive)	> 100 µM (inactive)	> 100 µM (inactive)	> 100 µM (inactive)	> 100 µM (inactive)	> 100 µM (inactive)	> 100 µM (inactive)	> 100 µM (inactive)
COc1cccc(-c2cc(O)c3cc(N4CCOCC4)ccc3n2)c1	0.0364 µM (active)	–	0.151 µM (active)	0.363 µM (active)	0.0559 µM (active)	0.0158 µM (active)	0.361 µM (active)	0.0375 µM (active)	0.041 µM (active)	0.0552 µM (active)	4.26 µM (inactive)	0.0231 µM (active)	0.0289 µM (active)	0.177 µM (active)	0.0383 µM (active)	0.0426 µM (active)	0.113 µM (active)	0.0484 µM (active)	6.76 µM (inactive)	0.0748 µM (active)
